Assay results: US9783523B2, “N-acylimino heterocyclic compounds” (BASF SE, priority 2013, dated 2017)

What was measured:
Assay type in all cases: in vivo
[1] = system: Ceratitis capitata; test: Mediterranean fruitfly (Ceratitis capitata), eggs on insect diet in microtiter plates; conditions: 120 h, read-out: mortality in comparison with untreated controls
Method: For evaluating control of Mediterranean fruitfly (Ceratitis capitata) the test unit consisted of microtiter plates containing an insect diet and 50-80 C. capitata eggs.
The compounds were formulated using a solution containing 75% v/v water and 25% v/v DMSO. Different concentrations of formulated compounds were sprayed onto the insect diet at 5 μl, using a custom built micro atomizer, at two replications.
After application, microtiter plates were incubated at about 28±1° C. and about 80±5% relative humidity for 5 days. Egg and larval mortality was then visually assessed.

[2] = system: Myzus persicae; test: Green peach aphid (Myzus persicae), systemic control, liquid artificial diet under membrane in 96-well microtiter plates; conditions: 72 h, read-out: mortality in comparison with untreated controls
Text: General conditions: If not otherwise specified, most test solutions are to be prepared as follows: The active compound is to be dissolved at the desired concentration in a mixture of 1:1 (vol:vol) distilled water:acteon. Further, the test solutions are to be prepared at the day of use (and, if not otherwised specified, in general at concentrations wt/vol).
For evaluating control of green peach aphid (Myzus persicae) through systemic means, the test unit consists of 96-well-microtiter plates containing liquid artificial diet under an artificial membrane.
The compounds are formulated using a solution containing 75% v/v water and 25% v/v DMSO. Different concentrations of formulated compounds are pipetted into the aphid diet, using a custom built pipetter, at two replications.
After application, 5-8 adult aphids are placed on the artificial membrane inside the microtiter plate wells. The aphids are then allowed to suck on the treated aphid diet and incubated at about 23+1° C. and about 50+5% relative humidity for 3 days. Aphid mortality and fecundity is then visually assessed.

[3] = system: Megoura viciae; test: Vetch aphid (Megoura viciae), sprayed bean leaf disks in microtiter plates; conditions: foliar, 144 h, read-out: mortality in comparison with untreated controls
Method: The active compounds were formulated in 3:1 (vol:vol) water:DMSO with different concentrations of formulated compounds.
Bean leaf disks were placed into microtiterplates filled with 0.8% agar-agar and 2.5 ppm OPUS™. The leaf disks were sprayed with 2.5 μl of the test solution and 5 to 8 adult aphids were placed into the microtiter plates which were then closed and kept at 23±1° C. and 50±5% relative humidity under fluorescent light for 6 days. Mortality was assessed on the basis of vital, reproduced aphids. Aphid mortality and fecundity was then visually assessed.

[4] = system: Anthonomus grandis; test: Boll weevil (Anthonomus grandis), eggs on insect diet in 24-well microtiter plates; conditions: 120 h, read-out: mortality in comparison with untreated controls
Method: The compounds were formulated in 3:1 (vol:vol) water:DMSO.
For evaluating control of boll weevil (Anthonomus grandis) the test unit consisted of 24-well-microtiter plates containing an insect diet and 20-30 A. grandis eggs. Different concentrations of formulated compounds were sprayed onto the insect diet at 20 μl, using a custom built micro atomizer, at two replications. After application, the microtiter plates were incubated at 23±1° C. and 50±5% relative humidity for 5 days. Egg and larval mortality was then visually assessed.

[5] = system: Aphis craccivora; test: Cowpea aphid (Aphis craccivora), potted cowpea plants sprayed; conditions: 72 h, read-out: mortality in comparison with untreated controls
Method: The active compound is dissolved at the desired concentration in a mixture of 1:1 (vol:vol) distilled water:acetone. Surfactant (Alkamuls® EL 620) is added at a rate of 0.1% (vol/vol). The test solution is prepared at the day of use.
Potted cowpea plants are colonized with approximately 50-100 aphids of various stages by manually transferring a leaf tissue cut from infested plant 24 hours before application. Plants are sprayed after the pest population has been recorded. Treated plants are maintained on light carts at about 28° C. Percent mortality is assessed after 72 hours.

[6] = system: Nilaparvata lugens; test: Rice brown plant hopper (Nilaparvata lugens), sprayed rice seedlings; conditions: 72 h, read-out: mortality in comparison with untreated controls
Method: (§1) Rice seedlings are cleaned and washed 24 hours before spraying. The active compounds is formulated in 50:50 acetone:water (vol:vol) and 0.1% vol/vol surfactant (EL 620) was added. Potted rice seedlings are sprayed with 5 ml test solution, air dried, placed in cages and inoculated with 10 adults. Treated rice plants are kept at about 28-29° C. and relative humidity of about 50-60%. Percent mortality is recorded after 72 hours.

[7] = system: Bemisia argentifolii; test: Silverleaf whitefly (Bemisia argentifolii) adults, sprayed cotton plants; conditions: 72 h, read-out: mortality in comparison with untreated controls
Method: (§2) The active compounds were formulated in cyclohexanone as a 10,000 ppm solution supplied in 1.3 ml ABgene® tubes. These tubes were inserted into an automated electrostatic sprayer equipped with an atomizing nozzle and they served as stock solutions for which lower dilutions were made in 1:1 (vol:vol) water: aceton. A nonionic surfactant (Kinetic®) was included in the solution at a volume of 0.01% (v/v).
Cotton plants at the cotyledon stage (one plant per pot) were sprayed by an automated electrostatic plant sprayer equipped with an atomizing spray nozzle. The plants were dried in the sprayer fume hood and then removed from the sprayer. Each pot was placed into a plastic cup and 10 to 12 whitefly adults (approximately 3-5 days old) were introduced. The insects were collected using an aspirator and 0.6 cm, nontoxic Tygon® tubing (R-3603) connected to a barrier pipette tip. The tip, containing the collected insects, was then gently inserted into the soil containing the treated plant, allowing insects to crawl out of the tip to reach the foliage for feeding. Cups were covered with a reusable screened lid (150-micron mesh polyester screen PeCap from Tetko, Inc.). […] Mortality was assessed 3 days after treatment, compared to untreated control plants.

[8] = system: Plutella xylostella; test: Diamond back moth (Plutella xylostella), dipped cabbage leaves; conditions: 72 h, read-out: mortality in comparison with untreated controls
Method: The active compound is dissolved at the desired concentration in a mixture of 1:1 (vol:vol) distilled water:aceteone. Surfactant (Alkamuls® EL 620) is added at a rate of 0.1% (vol/vol). The test solution is prepared at the day of use.
Leaves of cabbage were dipped in test solution and air-dried. Treated leaves were placed in petri dish eslined with moist filter paper and inoculated with ten 3rd instar larvae. Mortality was recorded 72 hours after treatment. Feeding damages were also recorded using a scale of 0-100%.

[9] = system: Aphis gossypi; test: Cotton aphid (Aphis gossypi), infested cotton plants sprayed; conditions: 120 h, read-out: mortality in comparison with untreated controls
Method: as §2, with “water:aceton.” for “water: aceton.”
Cotton plants at the cotyledon stage were infested with aphids prior to treatment by placing a heavily infested leaf from the main aphid colony on top of each cotyledon. Aphids were allowed to transfer overnight to accomplish an infestation of 80-100 aphids per plant and the host leaf was removed. The infested plants were then sprayed by an automated electrostatic plant sprayer equipped with an atomizing spray nozzle. The plants were dried in the sprayer fume hood, removed from the sprayer, and then maintained in a growth room under fluorescent lighting in a 24-hr photoperiod at 25° C. and 20-40% relative humidity. Aphid mortality on the treated plants, relative to mortality on untreated control plants, was determined after 5 days.

[10] = system: Spodoptera eridania; test: Southern armyworm (Spodoptera eridania), sprayed lima bean plants; conditions: 96 h, read-out: mortality in comparison with untreated controls
Method: as §2, with “in” for “in 1.3 ml ABgene®”, “The” for “These”, “50% acetone:50% water (v/v).” for “1:1 (vol:vol) water: aceton.”
Lima bean plants (variety Sieva) were grown 2 plants to a pot and selected for treatment at the 1st true leaf stage. Test solutions were sprayed onto the foliage by an automated electrostatic plant sprayer equipped with an atomizing spray nozzle. The plants were dried in the sprayer fume hood and then removed from the sprayer. Each pot was placed into perforated plastic bags with a zip closure. About 10 to 11 armyworm larvae were placed into the bag and the bags zipped closed. Test plants were maintained in a growth room at about 25° C. and about 20-40% relative humidity for 4 days, avoiding direct exposure to fluorescent light (24 hour photoperiod) to prevent trapping of heat inside the bags. Mortality and reduced feeding were assessed 4 days after treatment, compared to untreated control plants.

[11] = system: Dichromothrips corbetti; test: Orchid thrips (Dichromothrips corbetti), floral-immersion technique; conditions: 72 h, read-out: mortality in comparison with untreated controls
Method: Dichromothrips corbetti adults used for bioassay are obtained from a colony maintained continuously under laboratory conditions. For testing purposes, the test compound is diluted in a 1:1 mixture of acetone:water (vol:vol), plus 0.01% vol/vol Alkamuls® EL 620 surfactant.
Thrips potency of each compound is evaluated by using a floral-immersion technique. Plastic petri dishes are used as test arenas. All petals of individual, intact orchid flowers are dipped into treatment solution and allowed to dry. Treated flowers are placed into individual petri dishes along with about 20 adult thrips. The petri dishes are then covered with lids. All test arenas are held under continuous light and a temperature of about 28° C. for duration of the assay. After 3 days, the numbers of live thrips are counted on each flower, and along inner walls of each petri dish. The percent mortality is recorded 72 hours after treatment.

[12] = system: Nezara viridula; test: Green soldier stink bug (Nezara viridula), sprayed soybean pods in Petri dishes; conditions: 120 h, read-out: mortality in comparison with untreated controls
Method: The active compound is dissolved at the desired concentration in a mixture of 1:1 (vol:vol) distilled water:aceteone. Surfactant (Kinetic HV) is added at a rate of 0.01% (vol/vol). The test solution is prepared at the day of use.
Soybean pods were placed in 90×50 mm glass Petri dishes lined with moist filter paper and inoculated with ten late 3rd instar N. viridula. Using a hand atomizer, an approximately 2 ml solution is sprayed into each Petri dish. Treated cups were kept at about 25-26° C. and relative humidity of about 65-70%. Percent mortality was recorded after 5 days.

[13] = system: Heliothis virescens; test: Tobacco budworm (Heliothis virescens), eggs on insect diet in 96-well microtiter plates; conditions: 120 h, read-out: mortality in comparison with untreated controls
Method: For evaluating control of tobacco budworm (Heliothis virescens) the test unit consisted of 96-well-microtiter plates containing an insect diet and 15-25 H. virescens eggs.
The compounds were formulated using a solution containing 75% v/v water and 25% v/v DMSO. Different concentrations of formulated compounds were sprayed onto the insect diet at 10 μl, using a custom built micro atomizer, at two replications.
After application, microtiter plates were incubated at about 28+1° C. and about 80+5% relative humidity for 5 days. Egg and larval mortality was then visually assessed.

[14] = system: Nephotettix virescens; test: Rice green leafhopper (Nephotettix virescens), sprayed rice seedlings; conditions: 72 h, read-out: mortality in comparison with untreated controls
Method: as §1, with “compounds are” for “compounds is”, “acetone:water (vol:vol),” for “acetone:water (vol:vol)”, “620) is” for “620) was”

CO/N=C/C(=O)/N=c1\ccccn1Cc1ccc(Cl)nc1 [Compound I-15]
≥ 75%: mortality at 2500 ppm [1] | mortality at 2500 ppm [2] | mortality at 2500 ppm [3] | mortality at 2500 ppm [4] | mortality at 500 ppm [5] | mortality at 500 ppm [6] | mortality at 300 ppm [7] | mortality at 500 ppm [8] | mortality at 300 ppm [9] | mortality at 300 ppm [10] | mortality at 500 ppm [11] | mortality at 500 ppm [12] | mortality at 2500 ppm [13] | mortality at 300 ppm [14]
